As a reminder, the IC50 is the concentration that inhibits the measured activity by half. In general, inhibition refers to the share of the control response that was lost under treatment. A higher inhibition goes with strong suppression. As usually defined, the Ki is the dissociation constant of the complex between target and ligand, obtained from inhibition or displacement.

For assay [1], the target named is T1, AKR1C3 (Homo sapiens (Human), UniProt P42330). Put plainly: S-tetralol oxidation assay, AKR1C3. It is filed as biochemical. As for the experimental part: Enzymes were purified to constant specific activity and their purity established by SDS-PAGE. All AKR enzymes were stored at −80° C. in 20 mM potassium phosphate buffer pH 7.0 containing 30% glycerol, 1 mM EDTA, and 1 mM β-mercaptoethanol. […] The specific activities of AKR1C enzymes were determined by measuring the formation of NADH at 340 nm using a Beckman DU640 spectrophotometer. […] The mixtures were incubated at 25° C. (AKR1C1 and 1C4) or 37° C. (AKR1C2 and 1C3) for 3 min, followed by adding a serial dilution of enzyme solution to a final volume of 1 mL to initiate the reaction. After continuously monitoring for 5 min, the increase in UV absorption using different concentrations of enzyme were recorded to calculate the initial velocity of substrate oxidation and determine enzyme-specific activity.
T1 sequence (P42330 whole entry): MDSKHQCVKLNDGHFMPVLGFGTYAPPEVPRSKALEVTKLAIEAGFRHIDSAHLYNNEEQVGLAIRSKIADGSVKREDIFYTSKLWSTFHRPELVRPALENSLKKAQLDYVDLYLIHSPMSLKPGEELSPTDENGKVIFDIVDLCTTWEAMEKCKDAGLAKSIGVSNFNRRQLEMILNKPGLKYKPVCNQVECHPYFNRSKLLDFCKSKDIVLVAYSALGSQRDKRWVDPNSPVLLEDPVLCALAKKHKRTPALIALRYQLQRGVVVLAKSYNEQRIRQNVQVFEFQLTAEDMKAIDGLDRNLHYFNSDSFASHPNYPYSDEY
Reagents were mixed and incubated at 37° C. for 10 min followed by adding AKR1C enzymes to initiate the reaction. […] To determine the pattern of inhibition, five fixed concentrations of S-tetralol were used and four different concentrations of inhibitor were used and a gobal fit of the equations for COMP, NONCOMP and UNCOMP to the data was applied using Grafit.

Assay [2] deals with T2, AKR1C2 (Homo sapiens (Human), UniProt P52895). Put plainly: S-tetralol oxidation assay, AKR1C2. The note with it: NADP+ dependent oxidation of S-tetralol, S-tetralol at Km; Table 1. The class given is biochemical. The protocol:
Enzyme Purification: Homogenous recombinant enzymes AKR1C1-4 were prepared and purified (Burczynski, et al., 1998, Biochemistry 37:6781-6790). Enzymes were purified to constant specific activity and their purity established by SDS-PAGE. All AKR enzymes were stored at −80° C. in 20 mM potassium phosphate buffer pH 7.0 containing 30% glycerol, 1 mM EDTA, and 1 mM β-mercaptoethanol. Under standard assay conditions, the specific activity of AKR1C1 for the NAD^+ dependent oxidation of 1-acenaphthenol (Sigma) was 2.0 μmol min^−1 mg^−1. The specific activities of AKR1C2 and AKR1C3 for the NAD^+ dependent oxidation of S-tetralol (Sigma) were 1.5 and 2.0 μmol min^−1 mg^−1, respectively, and the specific activity of AKR1C4 for the NAD^+ dependent oxidation of androsterone (Steraloids) was 0.3 μmol min^−1 mg^−1. The specific activities of AKR1C enzymes were determined by measuring the formation of NADH at 340 nm using a Beckman DU640 spectrophotometer. A typical assay solution contained 100 mM potassium phosphate pH 7.0, 2.3 mM NAD^+, 200 μM 1-acenaphthenol for AKR1C1, 3.0 mM Stetralol for AKR1C2 and 1C3, and 75 μM androsterone for AKR1C4, 4% acetonitrile (v/v). The mixtures were incubated at 25° C. (AKR1C1 and 1C4) or 37° C. (AKR1C2 and 1C3) for 3 min, followed by adding a serial dilution of enzyme solution to a final volume of 1 mL to initiate the reaction. After continuously monitoring for 5 min, the increase in UV absorption using different concentrations of enzyme were recorded to calculate the initial velocity of substrate oxidation and determine enzyme-specific activity.
the inhibitory potency of the individual compounds against the AKR1C isoforms was determined by monitoring the NADP^+ dependent oxidation of S-tetralol catalyzed by the AKR1C enzymes using substrate concentrations at their Km values in the presence and absence of varying concentration of the inhibitors (Adeniji, et al., 2012, J Med Chem 55:2311-2323). Reaction systems (200 μL) contained 100 mM potassium phosphate buffer (pH 7.0), 4% DMSO, 200 μM NADP^+, a serial dilution of compounds, S-tetralol, and AKR1C enzymes. […] The concentration of AKR1C1, 1C2, 1C3, and 1C4 was 111, 86, 95, and 552 nM, respectively. Reagents were mixed and incubated at 37° C. for 10 min followed by adding AKR1C enzymes to initiate the reaction. […] To determine the pattern of inhibition, five fixed concentrations of S-tetralol were used and four different concentrations of inhibitor were used and a gobal fit of the equations for COMP, NONCOMP and UNCOMP to the data was applied using Grafit.

Another assay addresses COX-2 (Mus musculus, UniProt Q05769). Kind of assay: COX-2 inhibition. The class given is biochemical.
Assay [3] addresses T2, AKR1C2. Put plainly: AKR1C2 catalyzed NADPH dependent reduction of 5α-DHT. The class given is biochemical. The note with it: 5α-DHT reduction, <100 μM concentrations.
Procedure: Compounds were tested for their ability to inhibit the AKR1C3 catalyzed, reduction of [^3H]-Δ^4-AD and the AKR1C2 catalyzed reduction of [^3H]-5α-DHT. Compounds were incubated with purified recombinant enzyme and radiolabeled steroid in 100 mM phosphate buffer pH7.0 and 4% DMSO at 37° C. The reaction was initiated by the addition of 1 mM NADPH, aliquots were removed over time and subsequently quenched by the addition of ice cold ethyl acetate. The ethyl acetate fraction was extracted and dried in vacuum. Steroid reference standards and extracts were dissolved in 50 μl ethyl acetate and applied to LK6D Silica TLC plates (Whatman Inc., Clifton, N.J.). TLC plates were developed using a dichloromethane/ethyl acetate (80:20 v/v) solution and were scanned with a Bioscan System 200 plate reader (Washington, D.C.). The percentage of radioactivity in the product peak was calculated assuming that the combined radioactivity in the substrate and product peaks was 100%. Initial velocities were computed by converting the percentage of radioactivity in the product peak by the specific radioactivity of the starting material to generate pmoles/min.
Assay [4] relates to LNCaP-AKR1C3 cells. Put plainly: Radiometric assay of androgen metabolism. The class given is cell-based. The note with it: 100 nM Δ4-AD, 30 μM compound, 48 h. The protocol: LNCaP-AKR1C3 cells seeded at a density of 1.5×10^6 cells were plated in 6 well plates in CSS media. The cells were allowed to incubate for 24 h, after which the media was aspirated and fresh CSS media with 7.5 nM (1.26 μCi) of [^3H] Δ^4-AD and 92.5 nM of cold Δ^4-AD (to obtain a final concentration of 100 nM) was added in the presence and absence of 30 μM of compound 8a in each well. The cells were incubated for 48 h, after which time the media was collected for analysis (Byrns, et al., 2012, J. Steroid. Biochem. & Mol. Biol. 130:7-15). The media was extracted twice with cold ethyl acetate. In order to determine radioactivity of each phase, a portion of each fraction was added to Ultima Gold (Perkin Elmer Life Sciences) scintillation fluid and analyzed on a TriCarb 2100 (Packard Instruments, Perkin Elmer Life Sciences), all CPM counts were blank-adjusted and reported as corrected cpm. The aqueous phases were acidified to pH 6.5 with acetic acid and subjected to treatment with 400 U of E. coli β-glucuronidase at 37° C. for 24 h. The de-conjugated androgens were re-extracted as described elsewhere herein, dried in vacuum and re-dissolved in 100 μL ethyl acetate for separation on the multi-channel LK6D Silica TLC plates. Plates were developed using dichloromethane/ethyl acetate (80:20 v/v) and scanned on the BioScan 200 plate reader.

A further assay has as its target COX-1 (Ovis aries (Sheep), UniProt P05979). Put plainly: COX-1 assay (TMPD oxidation). It is filed as biochemical, ram. The protocol: The purity of the enzyme was assessed by SDS-PAGE. […] Reagents were mixed and incubated at 25° C. for 5 min followed by adding a mixture of TMPD and arachidonic acid to initiate the reaction. Specific activity was determined based on the initial velocity of the reduction of PGG2 formed in the reaction.
The effect of the compounds on COX-1 activity was determined by a continuous colorimetric assay that monitored the oxidation of N, N, N, N-tetramethyl-1,4-phenylenediamine (TMPD) when coupled to the COX catalyzed formation of PGH2 from PGG2 using arachidonic acid as substrate. […] Reagents were mixed and incubated at 25° C. for 5 min followed by adding a mixture of TMPD and arachidonic acid to initiate the reaction.

The next assay has as its target AKR1C1 (Homo sapiens (Human), UniProt Q04828). Put plainly: S-tetralol oxidation assay, AKR1C1. The class given is biochemical.
The target in assay [5] is T1, AKR1C3. Put plainly: AKR1C3 catalyzed reduction of Δ4-AD. It is filed as biochemical. The note with it: E.NADPH.I complex; read-out: Ki, competitive inhibition of AKR1C3 catalyzed reduction of Δ4-AD. From the text:
The ethyl acetate fraction was extracted and dried in vacuum.

Assay [6] has as its system LNCaP-AKR1C3 cells. Put plainly: Western blot of Δ4-AD induced PSA expression. The class given is cell-based. The note with it: 100 nM Δ4-AD, 30 μM compound. The protocol:
LNCaP cells stably expressing AKR1C3 (LNCaP-AKR1C3 cells) (Byrns, et al., 2012, J. Steroid. Biochem. & Mol. Biol. 130:7-15) seeded at a density of 1.5×10^6 cells were plated in 6 cm dishes containing phenol red free RPMI-1640 media supplemented with 5% CDFBS, 1% Pen/Strep and 2 mM L-Glutamine (CSS media). The cells were incubated for 24 h after which media was aspirated and fresh CSS media containing 100 nM Δ^4-AD plus and minus inhibitors. The cells were incubated for 24 h after which they were harvested in RIPA lysis buffer supplemented with protease inhibitors at 4° C. Lysate protein concentration was determined by the Bradford assay using the BIORAD protein dye (Bio-Rad). The samples were subjected to electrophoresis on a 12% SDS-PAGE gel that was subsequently transferred to a nitrocellulose membrane. The membrane was probed with the appropriate antibodies as follows; anti β-tubulin (Millipore, #05-661) anti-PSA (Meridian Life Science, Inc., #K92110R). Blots were imaged using the ECL reagent (Pierce) and GelDoc XR+ System and Image Lab software (Bio-Rad).
For orientation: A western blot detects proteins with antibodies after separation by electrophoresis.

The mark [7] stands for this setting: NADP+ dependent oxidation of S-tetralol, S-tetralol at Km, Table 1.
Setting [8] is: highest inhibitor concentration (100 μM) tested.

The structures appear in SMILES notation. Where “and” joins values, the source holds several entries; their conditions need not be identical. Equal values may be shown once.

T2 sequence (P52895 whole entry): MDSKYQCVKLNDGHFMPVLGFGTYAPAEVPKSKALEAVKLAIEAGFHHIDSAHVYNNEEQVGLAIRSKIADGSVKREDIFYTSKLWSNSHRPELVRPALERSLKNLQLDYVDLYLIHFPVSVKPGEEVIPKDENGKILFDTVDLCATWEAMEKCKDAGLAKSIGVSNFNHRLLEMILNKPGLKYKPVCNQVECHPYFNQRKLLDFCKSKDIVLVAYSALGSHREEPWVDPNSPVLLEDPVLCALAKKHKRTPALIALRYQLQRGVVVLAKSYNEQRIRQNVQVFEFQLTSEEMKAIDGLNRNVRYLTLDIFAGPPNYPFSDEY
COX-1, sequence (P05979 25-600): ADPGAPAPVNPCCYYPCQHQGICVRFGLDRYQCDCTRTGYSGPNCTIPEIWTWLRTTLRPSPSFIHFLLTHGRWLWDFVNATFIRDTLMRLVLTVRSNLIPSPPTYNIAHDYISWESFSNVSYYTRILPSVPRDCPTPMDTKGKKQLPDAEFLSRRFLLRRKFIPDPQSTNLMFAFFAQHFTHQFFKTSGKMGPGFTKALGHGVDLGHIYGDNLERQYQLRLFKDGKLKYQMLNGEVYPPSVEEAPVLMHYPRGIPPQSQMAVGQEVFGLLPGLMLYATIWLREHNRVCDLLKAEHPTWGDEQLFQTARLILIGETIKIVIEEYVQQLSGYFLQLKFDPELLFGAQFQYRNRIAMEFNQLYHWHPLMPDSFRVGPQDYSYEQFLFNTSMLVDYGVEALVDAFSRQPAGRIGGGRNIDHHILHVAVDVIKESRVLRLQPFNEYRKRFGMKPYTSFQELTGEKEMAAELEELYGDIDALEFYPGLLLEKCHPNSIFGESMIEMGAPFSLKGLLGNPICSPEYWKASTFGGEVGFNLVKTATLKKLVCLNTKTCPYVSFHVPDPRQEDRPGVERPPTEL
COX-2, sequence (Q05769 18-604 limits assumed): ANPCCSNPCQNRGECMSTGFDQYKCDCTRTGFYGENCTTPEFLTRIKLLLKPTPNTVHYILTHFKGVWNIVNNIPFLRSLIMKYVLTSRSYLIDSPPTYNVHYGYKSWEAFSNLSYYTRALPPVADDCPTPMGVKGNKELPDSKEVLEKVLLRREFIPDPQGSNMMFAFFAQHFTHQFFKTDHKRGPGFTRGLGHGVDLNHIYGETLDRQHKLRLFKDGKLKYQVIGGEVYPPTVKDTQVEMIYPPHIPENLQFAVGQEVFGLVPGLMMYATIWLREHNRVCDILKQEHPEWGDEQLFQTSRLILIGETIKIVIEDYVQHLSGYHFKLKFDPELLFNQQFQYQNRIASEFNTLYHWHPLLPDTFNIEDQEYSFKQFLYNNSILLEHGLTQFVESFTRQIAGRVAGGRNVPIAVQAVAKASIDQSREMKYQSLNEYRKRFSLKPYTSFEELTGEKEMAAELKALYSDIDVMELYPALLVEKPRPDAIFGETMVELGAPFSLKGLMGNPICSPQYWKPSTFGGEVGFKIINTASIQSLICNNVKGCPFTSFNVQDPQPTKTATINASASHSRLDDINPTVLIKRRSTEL
AKR1C1, sequence (Q04828 whole entry, looked up): as the sequence (P52895 whole entry) above, with V38T, H47R, V54L, S87C, M151V, H170R, L172Q counted along it

Take `CCC(C(=O)O)c1ccc2cc(OC)ccc2c1` (racemic) [LM5750(±) 8, 2-(6-Methoxynaphthalen-2-yl)butanoic Acid]: the IC50 on AKR1C3 [1] (S-tetralol oxidation) turned out to be 0.12 µM; at AKR1C2 [2] it was 7.6 ± 0.95 µM. The “inhibitory activity on COX-2” value on COX-2 (maximum concentration of arachidonic acid tested as substrate (10 μM)) is “no inhibitory activity”.

Regarding `COc1ccc2cc(C(C)(C)C(=O)O)ccc2c1` [DimethylNaproxen 9, 2-(6-methoxynaphthalen-2-yl)-2-methylpropanoic acid], the IC50 on AKR1C3 [1] (setting [7]) is 0.27 µM; at AKR1C2 [2] it was 1.32 µM. Further, on AKR1C3 [1] (selectivity for AKR1C3 over AKR1C2, Table 1), the “Ratio IC50 value (AKR1C2/AKR1C3)” value came to 5.

Regarding `CC(C(=O)O)c1ccc2cc(S(C)(=O)=O)ccc2c1` (racemic) [LM5754(±) 6, 2-(6-(Methylsulfonyl)naphthalen-2-yl)propanoic Acid], the half-maximal inhibitory concentration (IC50) on AKR1C2 [2] was 3 ± 0.14 µM.

On to `CSc1ccc2cc([C@@H](C)C(=O)O)ccc2c1` [(R)-4a, 2(R)-(6-(methylthio)naphthalen-2-yl)propanoic acid], for which the IC50 on AKR1C3 [1] (setting [7]) came to 0.05 ± 0.0015 µM; on AKR1C2 [2], 4.35 ± 0.61 µM.

Consider `CC(C(=O)O)c1ccc2cc([S+](C)[O-])ccc2c1` (racemic) [LM5754(±) 5, 2-(6-(Methylsulfinyl)naphthalen-2-yl)propanoic Acid], for which the IC50 on AKR1C2 [2] amounted to 6.3 ± 0.35 µM.

For the molecule `COc1ccc2cc(CC(=O)O)ccc2c1` [DesmethylNaproxen 10, 2-(6-methoxynaphthalen-2-yl)acetic acid], the figures for the IC50 on AKR1C3 [1] (setting [7]) and at AKR1C2 [2] were 0.65 ± 0.11 µM and 19 ± 3.7 µM, respectively.

As for `CCC(C(=O)NS(C)(=O)=O)c1ccc2cc(OC)ccc2c1` (racemic) [LM5885 (±) 7, 2-(6-Methoxynaphthalen-2-yl)-N-(methylsulfonyl)butanamide], the IC50 on AKR1C2 [2] was found to be 34 µM.

Consider `CC[C@@H](C(=O)O)c1ccc2cc(OC)ccc2c1` [LM5750B 8a, 2(R)-(6-methoxynaphthalen-2-yl)butanoic acid], for which, on AKR1C2 [3], the “inhibition of AKR1C2” value is “did not display any significant inhibition”. Further, the “production of 3H-testosterone glucuronide” value with LNCaP-AKR1C3 cells [4] was “significantly inhibited”. The IC50 against COX-1 (arachidonic acid as substrate) was greater than 100 µM; at AKR1C1, 50 µM; on AKR1C3 [1] (setting [7]), 0.11 ± 0.01 µM; at AKR1C2 [2], 46.4 µM and 48.1 µM. For the same molecule, the inhibition at 100 µM on COX-1 (setting [8]) was less than 20%. The Ki stood at 0.031 µM on AKR1C3 [1] (E.NADP+.I complex, read-out: Ki, competitive inhibition of AKR1C3 catalyzed oxidation of S-tetralol) and 0.75 µM at AKR1C3 [5]. The “preference for the E.NADP+ complex” value on AKR1C3 [1] (over E.NADPH complex) was 20 fold. For the same molecule, the “pattern of AKR1C3 inhibition” value on AKR1C3 [1] (oxidation of S-tetralol) is reported as “competitively inhibited”. Besides, in the assay with LNCaP-AKR1C3 cells [6], the “Δ4-AD mediated increase in PSA expression” value was “inhibited”.

As for `COc1ccc2cc([C@@H](C)C(=O)O)ccc2c1` [R-Naproxen (1a), reference compound], the “inhibition of COX-1 activity” value against COX-1 (setting [8]) is reported as “less than 20%”. Besides, the IC50 on AKR1C2 [2] was 2.75 µM; at COX-2 (Table 2), greater than 25 µM.

Take `COc1ccc2cc([C@H](C)C(=O)O)ccc2c1` [S-Naproxen (1), (S)-2-(6-methoxynaphthalen-2-yl)propanoic acid, reference compound]: on AKR1C2 [2], the IC50 was 1.26 ± 0.15 µM.

For `CSc1ccc2cc(C(C)C(=O)O)ccc2c1` (racemic) [LM5752(±) 4, 2-(6-(Methylthio)naphthalen-2-yl)propanoic Acid], the IC50 is 0.06 µM at AKR1C3 [1] (S-tetralol oxidation) and 1.5 ± 0.14 µM at AKR1C2 [2]. Moreover, at AKR1C3 [1] (over naproxen), the “increase in the inhibitory potency for AKR1C3” value is on record as 3 fold.

Consider `CCOc1ccc2cc(C(C)C(=O)O)ccc2c1` (racemic) [LM5753(±) 3, 2-(6-Ethoxynaphthalen-2-yl)propanoic Acid], for which the IC50 on AKR1C3 [1] (setting [7]) was found to be 0.1 ± 0.0076 µM; at AKR1C2 [2] it was 2.4 ± 0.24 µM.

In the case of `CCc1ccc2cc(C(C)C(=O)O)ccc2c1` (racemic) [LM5751(±) 2, 2-(6-Ethylnaphthalen-2-yl)propanoic Acid], the IC50 at AKR1C3 [1] (setting [7]) came out at 0.12 ± 0.0075 µM; at AKR1C2 [2], 1.9 ± 0.11 µM.
